From patent US9029337B2, “Modulation of factor 7 expression” (Isis Pharmaceuticals, Inc., priority 2007, dated 2015)
Strand notation (5' to 3'): a small letter for the sugar, then the base; units joined by * are phosphorothioate-linked, units joined directly phosphodiester-linked; [ ] holds rarer units or linkages, { } end groups; capitals alone tell only the bases. e = 2'-O-(2-methoxyethyl) (MOE); [5mC] = 5-methylcytosine; d = 2'-deoxy (DNA)

The substances below were run on human Factor 7 mRNA (assay: Antisense inhibition of human Factor 7 mRNA in HepB3 cells, 50 nM antisense oligonucleotide, lipofectin). Details: Table 1, 50 nM, lipofectin, approximately 24 hours, relative to untreated control cells.
Assay type: cell-based
In short: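 Seeding density was 4,000 cells per well. Following roughly 24 hours of oligonucleotide treatment, RNA was extracted and Factor 7 message quantified using the RTS 2927 primer probe set. Levels were corrected for RIBOGREEN® total RNA and expressed against untreated controls.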

Substance	% Inhibition
407886 (antisense eG*e[5mC]*eA*eG*eA*dG*dG*dA*dG*d[5mC]*d[5mC]*dT*dG*dA*dG*eG*eG*e[5mC]*e[5mC]*eT) [compound 407886]	72%
407892 (antisense e[5mC]*e[5mC]*e[5mC]*e[5mC]*eA*dT*dT*d[5mC]*dT*dG*dG*d[5mC]*dA*dT*dG*eG*eA*e[5mC]*eT*eT) [compound 407892]	68%
407659 (antisense eG*eA*eT*eG*eG*d[5mC]*dA*dT*d[5mC]*dG*dA*dG*dT*d[5mC]*d[5mC]*eA*e[5mC]*eT*e[5mC]*eT) [compound 407659]	55%
407933 (antisense eT*eG*eA*eT*eA*dA*dT*dG*dG*dA*dT*dA*dA*dG*dA*eA*e[5mC]*e[5mC]*eA*eG) [compound 407933]	58%
407653 (antisense eA*eA*eT*eA*eT*d[5mC]*dA*dT*dT*dG*dA*d[5mC]*dA*dA*dG*eG*eG*e[5mC]*eT*eG) [compound 407653]	21%
407962 (antisense eT*eT*eG*eG*eA*dA*dG*d[5mC]*dA*dG*d[5mC]*d[5mC]*d[5mC]*dA*d[5mC]*eG*eG*e[5mC]*eT*eG) [compound 407962]	41%

Same assay, conditions: Table 6, 50 nM, lipofectin, approximately 24 hours

Substance	% Inhibition
422186 (antisense eG*eG*eA*dA*dG*dA*dA*dG*dG*dG*dA*d[5mC]*dG*dG*dA*dA*dG*eG*eT*eG) [compound 422186]	14%

Same assay, conditions: gapmers targeted to nucleobases 4868 to 4899 of SEQ ID NO: 1, Table 8

Substance	% Inhibition of human Factor 7 mRNA levels
422299 (antisense eA*eG*d[5mC]*d[5mC]*d[5mC]*dG*dA*dG*dT*dT*d[5mC]*dT*dG*d[5mC]*dA*eG*eG*eA*eG*e[5mC]) [compound 422299]	64%
422219 (antisense e[5mC]*e[5mC]*eG*dA*dG*dT*dT*d[5mC]*dT*dG*d[5mC]*dA*dG*dG*dA*dG*d[5mC]*eG*eG*e[5mC]) [compound 422219]	65%
422220 (antisense e[5mC]*e[5mC]*e[5mC]*dG*dA*dG*dT*dT*d[5mC]*dT*dG*d[5mC]*dA*dG*dG*dA*dG*e[5mC]*eG*eG) [compound 422220]	59%
422301 (antisense eG*eG*dA*dG*d[5mC]*d[5mC]*d[5mC]*dG*dA*dG*dT*dT*d[5mC]*dT*dG*e[5mC]*eA*eG*eG*eA) [compound 422301]	67%

Same assay, conditions: lipofectin, 50 nM antisense oligonucleotide, approximately 24 hours, Factor 7 mRNA by real-time RT-PCR (RTS 2927), relative to untreated control

Substance	% Inhibition
416462 (antisense eG*eG*e[5mC]*eA*eG*dT*d[5mC]*d[5mC]*dT*dG*dG*dG*dT*d[5mC]*dA*eT*e[5mC]*eA*eG*e[5mC]) [compound 416462]	60%
416517 (antisense eG*eG*eG*eT*eG*d[5mC]*dA*dG*dT*dA*dG*d[5mC]*dA*dG*dA*eT*eG*e[5mC]*eA*eA) [compound 416517]	23%
416565 (antisense e[5mC]*eA*eG*eG*eA*dT*dG*d[5mC]*dT*d[5mC]*dA*dT*dG*dG*d[5mC]*eA*eG*eA*e[5mC]*eA) [compound 416565]	0%
416493 (antisense eT*e[5mC]*eT*eT*eG*dG*dG*dT*dG*dT*dG*dG*dA*dT*dG*eT*eA*eA*eA*eT) [compound 416493]	0%
416547 (antisense eA*eT*eG*eA*eA*dA*dT*dT*d[5mC]*dT*dA*d[5mC]*d[5mC]*dT*dA*eA*eA*eG*eA*eT) [compound 416547]	0%

Same assay, conditions: oligonucleotides targeted to nucleobases 11830 to 11869 of SEQ ID NO: 1 (Table 9)

Substance	% Inhibition (human Factor 7 mRNA levels)
422107 (antisense eG*e[5mC]*eT*eG*eG*d[5mC]*dT*dG*dA*dG*dG*dA*dG*dA*d[5mC]*eA*eA*eT*eG*eG) [compound 422107]	36%
422236 (antisense eA*eA*dT*dG*dG*dT*d[5mC]*dA*dG*dG*dG*d[5mC]*dT*dG*dG*eT*eT*eT*eT*eG) [compound 422236]	44%

Same assay, conditions: oligonucleotides targeted to nucleobases 15098 to 15122 of SEQ ID NO: 1 (Table 12)

Substance	% Inhibition (human Factor 7 mRNA levels)
422288 (antisense eA*e[5mC]*dA*dG*d[5mC]*dA*d[5mC]*dA*d[5mC]*dA*dT*dG*dG*dA*dG*eT*e[5mC]*eA*eG*e[5mC]) [compound 422288]	44%
